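All cell lines were grown in 96-well plates and treated with compound for 48 hours. GI50 marks 50% less growth. TGI: concentration producing complete growth inhibition.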

Our source for the GI50 and TGI values is PubChem BioAssay (NCI).

Some test systems named below: SF-268 CNS; UACC-62 melanoma; OVCAR-8 ovarian; ACHN renal; U251 CNS; CAKI-1 renal; TK-10 renal; MOLT-4 leukemia; PC-3 prostate; RPMI-8226 leukemia.
Test in all cases: NCI tumour cell line growth inhibition, 48 h

For `COC(=O)C1OC(O[C@H]2CCC3(C)C(CCC4(C)C3CC=C3C5CC(C)(C)CCC5(C(=O)O)CC[C@]34C)C2(C)C)C(O)C(OC2OC(CO)C(O)C(O)C2O)C1O` (stereo partly specified), the GI50 is 7.56 µM in the assay with SF-268 CNS; 6.23 µM in the assay on UACC-62 melanoma; 9.96 µM in the assay with OVCAR-8 ovarian; 5.99 µM in the assay on ACHN renal; 6.08 µM in the assay with U251 CNS; 12.2 µM with CAKI-1 renal. The figures for the GI50 with TK-10 renal, in the assay with MOLT-4 leukemia and in the assay with PC-3 prostate were 7.22 µM, 2.17 µM and 6.43 µM, respectively. Also, the TGI is 17.1 µM in the assay with SF-268 CNS; 11.7 µM in the assay on UACC-62 melanoma; 27.6 µM in the assay on OVCAR-8 ovarian; 10.7 µM with ACHN renal; 10.9 µM in the assay with U251 CNS; over 33.3 µM in the assay with CAKI-1 renal. The TGI was 14.2 µM in the assay with TK-10 renal, 13.4 µM in the assay with MOLT-4 leukemia and 11.8 µM with PC-3 prostate.

Turning to `CCOC(=O)CC1=Nc2ccccc2SC1`, the TGI is 1.56 µM with SF-268 CNS; over 100 µM in the assay on UACC-62 melanoma; over 100 µM in the assay with OVCAR-8 ovarian; over 100 µM in the assay with ACHN renal; over 100 µM in the assay with U251 CNS; over 100 µM in the assay with CAKI-1 renal. Also, the TGI in the assay with TK-10 renal and in the assay on MOLT-4 leukemia was over 100 µM in each case.

As for `CCCCCCCCCCCCCCCC(=O)NCC(COP(=O)([O-])OCC[N+](C)(C)C)OCC` (stereo unspecified), the TGI in the assay on SF-268 CNS amounted to 27 µM; in the assay with UACC-62 melanoma it was 22.3 µM; with OVCAR-8 ovarian, 17.2 µM; with ACHN renal, 29.1 µM; in the assay with U251 CNS, 14.4 µM; in the assay with RPMI-8226 leukemia it was 9.76 µM. Moreover, the results for the TGI with CAKI-1 renal, in the assay on TK-10 renal and in the assay on MOLT-4 leukemia were 35.2 µM, 3.95 µM and 10.1 µM, respectively.

As to `FC(F)(F)c1nc(-c2ccccc2Cl)[nH]c1C(F)(F)F`, the TGI with SF-268 CNS was over 29.5 µM; in the assay with UACC-62 melanoma it was 3.8 µM; with OVCAR-8 ovarian, 6.14 µM; in the assay on ACHN renal, 2.65 µM; with U251 CNS, 3.08 µM; with RPMI-8226 leukemia it was 25.2 µM. Besides, the TGI in the assay with CAKI-1 renal was 1.65 µM; in the assay with TK-10 renal, 14.5 µM; with MOLT-4 leukemia, over 29.5 µM.

For the compound `C1COCCN1.C1COCCN1.N.N.[Cl-].[Pt+2]`, the GI50 in the assay with UACC-62 melanoma is over 100 µM; in the assay on OVCAR-8 ovarian, over 100 µM; with U251 CNS, over 100 µM; in the assay with CAKI-1 renal, 54.1 µM; in the assay with TK-10 renal, over 100 µM. The TGI in the assay with UACC-62 melanoma, with OVCAR-8 ovarian, in the assay on U251 CNS, in the assay with CAKI-1 renal and with TK-10 renal was over 100 µM in each case.

Regarding `Cc1cc2c(cc1C)[n+](=O)c(C(=O)C/C(=N/NC(=O)c1ccccc1O)C(=O)Nc1ccccc1C(C)C)c(C)n2[O-]`, the TGI with SF-268 CNS, with UACC-62 melanoma, in the assay with OVCAR-8 ovarian, in the assay with ACHN renal, in the assay with U251 CNS and in the assay on CAKI-1 renal was over 100 µM throughout. Also, the TGI in the assay with TK-10 renal was over 100 µM; in the assay with MOLT-4 leukemia, 77.1 µM.

Turning to `N#CC1(c2nc3ccccc3o2)C(=O)C(=O)N(C2C3CC4CC(C3)CC2C4)C(=O)C1=O` (stereo unspecified), the TGI in the assay with SF-268 CNS, with UACC-62 melanoma, with OVCAR-8 ovarian, in the assay with ACHN renal, in the assay on U251 CNS and with RPMI-8226 leukemia was over 100 µM throughout. Moreover, the TGI in the assay on CAKI-1 renal, in the assay on TK-10 renal and in the assay with MOLT-4 leukemia was over 100 µM in each case.

As for `CCOC(=O)C1(CC)CCCCC(=O)N1` (stereo unspecified), the TGI in the assay with SF-268 CNS, with UACC-62 melanoma, with OVCAR-8 ovarian, in the assay with ACHN renal, in the assay with U251 CNS and in the assay on CAKI-1 renal was over 100 µM in each case. Also, in the assay with TK-10 renal, the TGI is over 100 µM.

As to `COc1ccc(/C=C/C=C(/C#N)C(N)=S)cc1`, the GI50 in the assay on SF-268 CNS is 28 µM; in the assay on UACC-62 melanoma, 19.3 µM; in the assay on OVCAR-8 ovarian it was 21.5 µM; with ACHN renal, 24.6 µM; in the assay with U251 CNS, 28.5 µM; in the assay on CAKI-1 renal, 29.6 µM. Also, the GI50 in the assay on TK-10 renal is 37.6 µM. Besides, the TGI in the assay with SF-268 CNS is over 100 µM; with UACC-62 melanoma, 37.9 µM; in the assay on OVCAR-8 ovarian it was 54.3 µM; with ACHN renal it was 49.9 µM; with U251 CNS, over 100 µM; with CAKI-1 renal it was over 100 µM. The TGI in the assay on TK-10 renal is over 100 µM.

In the case of `CC(=O)OC1=C2CC3(C)OC(=O)CC(C)(C)C3=CC=C2C=C(C(C)C)C1=O` (stereo unspecified), the TGI in the assay on SF-268 CNS was found to be 2.4 µM; with UACC-62 melanoma, 0.725 µM; in the assay on OVCAR-8 ovarian, 0.779 µM; with ACHN renal, 1.76 µM; in the assay on U251 CNS, 2.99 µM; in the assay on RPMI-8226 leukemia, 0.56 µM. In addition, the TGI in the assay with CAKI-1 renal worked out at 3.18 µM; with TK-10 renal, 2.51 µM; in the assay with MOLT-4 leukemia, 0.756 µM.

On to `O=c1[nH]c2ccccc2cc1C(Cl)=C(Cl)Cl`, for which the TGI in the assay with SF-268 CNS, in the assay with UACC-62 melanoma, in the assay on OVCAR-8 ovarian, with ACHN renal, with U251 CNS and in the assay with RPMI-8226 leukemia was over 100 µM in each case. For the same compound, the TGI in the assay on CAKI-1 renal, in the assay with TK-10 renal and in the assay with MOLT-4 leukemia was over 100 µM in each case.

Regarding `Cn1cc(NC(=O)c2cc(NC(=O)CCCCCCCCCCC(=O)Nc3cc(C(=O)Nc4cc(C(=O)NCCC(=N)N)n(C)c4)n(C)c3)cn2C)cc1C(=O)NCCC(=N)N`, the TGI in the assay on SF-268 CNS was over 100 µM; in the assay with UACC-62 melanoma it was over 100 µM; in the assay on OVCAR-8 ovarian it was 53.5 µM; in the assay on ACHN renal, over 100 µM; in the assay with U251 CNS, over 100 µM; in the assay with CAKI-1 renal, over 100 µM. For the same compound, the TGI with TK-10 renal is 87.9 µM; in the assay on MOLT-4 leukemia, over 100 µM.

As for `Cc1ccc(-c2c(N)nc(NC#N)nc2CCC(=O)Nc2ccccc2[N+](=O)[O-])cc1`, the TGI with SF-268 CNS, in the assay with UACC-62 melanoma, in the assay with ACHN renal, in the assay with U251 CNS, with RPMI-8226 leukemia and in the assay on CAKI-1 renal was over 100 µM in each case. Besides, the TGI in the assay on TK-10 renal and in the assay on MOLT-4 leukemia was over 100 µM throughout.
